Laboratory results published in BigSolDB 2.1.

CCCCCCCCCCCCCCCCCC
Details	solubility (mole fraction)
in cyclohexane, 281.45 K	0.214
in cyclohexane, 284.35 K	0.265
in cyclohexane, 287.2 K	0.35
in cyclohexane, 290.95 K	0.445
in cyclohexane, 294.8 K	0.576
in cyclohexane, 297.05 K	0.704
in ethanol, 283.05 K	0.0018
in ethanol, 285.75 K	0.0025
in ethanol, 287.7 K	0.0032
in ethanol, 289.25 K	0.0038
in ethanol, 291 K	0.0047
in ethanol, 292.6 K	0.0058
in ethanol, 294.35 K	0.0072
in ethanol, 296.2 K	0.0093
in ethanol, 297.95 K	0.0122
in ethanol, 299.45 K	0.0162
in n-heptane, 276.9 K	0.124
in n-heptane, 279 K	0.151
in n-heptane, 281.4 K	0.183
in n-heptane, 283.7 K	0.225
in n-heptane, 287.6 K	0.314
in n-heptane, 290.15 K	0.393
in n-heptane, 291.9 K	0.458
in n-heptane, 293.65 K	0.524
in n-heptane, 296.4 K	0.647
in n-heptane, 297.65 K	0.733

CCCCCCCCCCCCCCCCCCC
Details	solubility (mole fraction)
in cyclohexane, 282.25 K	0.201
in cyclohexane, 283.95 K	0.233
in cyclohexane, 286.65 K	0.29
in cyclohexane, 289.65 K	0.359
in cyclohexane, 292.8 K	0.458
in cyclohexane, 295.65 K	0.553
in cyclohexane, 297 K	0.6
in cyclohexane, 301.75 K	0.75
in ethanol, 282.7 K	0.0011
in ethanol, 284.8 K	0.0014
in ethanol, 286 K	0.0016
in ethanol, 287.4 K	0.0019
in ethanol, 288.7 K	0.0022
in ethanol, 289.95 K	0.0025
in ethanol, 290.95 K	0.003
in ethanol, 292.45 K	0.0035
in ethanol, 293.75 K	0.0041
in ethanol, 295.6 K	0.0051
in ethanol, 297.25 K	0.0062
in ethanol, 300.85 K	0.0083
in ethanol, 303.85 K	0.0115
in n-heptane, 278.25 K	0.129
in n-heptane, 279.5 K	0.145
in n-heptane, 280.95 K	0.164
in n-heptane, 282.45 K	0.19
in n-heptane, 284.25 K	0.22
in n-heptane, 286.55 K	0.256
in n-heptane, 288.7 K	0.314
in n-heptane, 290.95 K	0.393
in n-heptane, 293.7 K	0.478
in n-heptane, 296.95 K	0.611
in n-heptane, 302.3 K	0.786
